Assays:
Assay in all cases: cell viability (% survival relative to DMSO control); higher = less cytotoxic
Settings in all cases: 72 h
[1] = test system: Mono-Mac-6
Procedure: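 8x8 drug-combination matrices (0–5000 nM; rosiglitazone and lestaurtinib 0–1000 nM) were run in Mono-Mac-6 cells for 72 h with CellTiter-Glo read-out. Survival is normalised to DMSO and 10 µM bortezomib and clipped at 100%.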

[2] = test system: BV-173
Procedure: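 8x8 drug-combination matrices (0–5000 nM; rosiglitazone and lestaurtinib 0–1000 nM) were run in BV-173 cells for 72 h with CellTiter-Glo read-out. Survival is normalised to DMSO and 10 µM bortezomib and clipped at 100%.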

[3] = test system: MV4-11
Procedure: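 8x8 drug-combination matrices (0–5000 nM; rosiglitazone and lestaurtinib 0–1000 nM) were run in MV4-11 cells for 72 h with CellTiter-Glo read-out. Survival is normalised to DMSO and 10 µM bortezomib and clipped at 100%.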

O=C(C1CC1)N1CC[C@@H](C=C2NNC(=O)N2c2ccc(-c3ccc4occc4c3)cc2)C1 + CS(=O)(=O)N1CCN(Cc2cc3nc(-c4cccc5[nH]ncc45)nc(N4CCOCC4)c3s2)CC1 [Pictilisib]
cell viability [%]
Settings	drug1 concentration 5 nM	drug1 concentration 10 nM	drug1 concentration 50 nM	drug1 concentration 100 nM	drug1 concentration 500 nM	drug1 concentration 1000 nM	drug1 concentration 5000 nM
[1], drug2 concentration 5 nM	> 100	94.2	88.6	86.5	92.2	81.2	88.3
[1], drug2 concentration 10 nM	89.9	> 100	85.6	81	78.2	81.2	93.1
[1], drug2 concentration 50 nM	80.5	> 100	81.7	69.7	74.8	99	68.1
[1], drug2 concentration 100 nM	63	75.5	91.8	75.3	> 100	94.4	84.6
[1], drug2 concentration 500 nM	70	83.9	> 100	87.7	73	86.2	81.4
[1], drug2 concentration 1000 nM	53.7	71	52.4	87.1	71.3	77.1	69.4
[1], drug2 concentration 5000 nM	51.6	27.5	37.5	48.3	49.9	24.2	49.3
[2], drug2 concentration 5 nM	> 100	> 100	95	> 100	84.4	77.5	84.8
[2], drug2 concentration 10 nM	> 100	> 100	> 100	> 100	95.5	> 100	92.2
[2], drug2 concentration 50 nM	> 100	> 100	> 100	> 100	94.4	99.1	59.7
[2], drug2 concentration 100 nM	81	> 100	> 100	94.8	94.3	87.4	> 100
[2], drug2 concentration 500 nM	> 100	> 100	93.8	> 100	> 100	98.7	89.3
[2], drug2 concentration 1000 nM	89.7	99.2	> 100	92.8	80	99.9	78.4
[2], drug2 concentration 5000 nM	87.6	92.1	84.8	> 100	75.7	70.6	> 100
[3], drug2 concentration 5 nM	> 100	91.3	> 100	89.5	> 100	76.8	> 100
[3], drug2 concentration 10 nM	> 100	89.1	> 100	91.9	72	94.3	> 100
[3], drug2 concentration 50 nM	> 100	99.9	94.2	92	93.5	> 100	56.5
[3], drug2 concentration 100 nM	89.5	96.8	99.6	> 100	> 100	94.6	> 100
[3], drug2 concentration 500 nM	> 100	95.5	> 100	94	94.4	94.2	80.3
[3], drug2 concentration 1000 nM	91.9	71.7	87.8	80.5	87.1	> 100	74.8
[3], drug2 concentration 5000 nM	76.5	49.4	58.1	68.8	69.9	44.4	55.6

CC(C)c1onc(-c2c(Cl)cccc2Cl)c1COc1ccc(/C=C/c2cccc(C(=O)O)c2)c(Cl)c1 [GW4064] + Cn1cc(-c2ccncc2)c(-c2ccc(OCc3ccc4ccccc4n3)cc2)n1 [PF-02545920]
cell viability [%]
Settings	drug1 concentration 5 nM	drug1 concentration 10 nM	drug1 concentration 50 nM	drug1 concentration 100 nM	drug1 concentration 500 nM	drug1 concentration 1000 nM	drug1 concentration 5000 nM
[1], drug2 concentration 5 nM	> 100	> 100	> 100	85.7	80.4	88.9	> 100
[1], drug2 concentration 10 nM	92.5	> 100	79.3	78.5	87.6	94.3	99.8
[1], drug2 concentration 50 nM	> 100	> 100	> 100	86	97.2	66.9	99.9
[1], drug2 concentration 100 nM	> 100	90.5	> 100	86.8	> 100	> 100	82.2
[1], drug2 concentration 500 nM	81.2	69.3	> 100	> 100	94.8	87.9	> 100
[1], drug2 concentration 1000 nM	93.3	> 100	77.2	98.6	96.1	89.8	81.4
[1], drug2 concentration 5000 nM	74.5	91.6	65	76.7	96.5	85.1	87.7
[2], drug2 concentration 5 nM	> 100	> 100	> 100	90.6	> 100	> 100	> 100
[2], drug2 concentration 10 nM	> 100	95.5	95.6	> 100	> 100	> 100	98
[2], drug2 concentration 50 nM	> 100	88.5	> 100	> 100	> 100	80.7	74
[2], drug2 concentration 100 nM	> 100	> 100	> 100	> 100	> 100	> 100	97
[2], drug2 concentration 500 nM	97.3	93.2	96	> 100	> 100	> 100	> 100
[2], drug2 concentration 1000 nM	> 100	> 100	82.7	99.2	95.5	87.3	81.7
[2], drug2 concentration 5000 nM	90.7	90.2	79.3	96.2	92.8	78.5	> 100
[3], drug2 concentration 5 nM	90.6	> 100	> 100	95.2	> 100	90.8	90.2
[3], drug2 concentration 10 nM	> 100	> 100	91	99.5	94.5	> 100	95.5
[3], drug2 concentration 50 nM	> 100	> 100	> 100	> 100	> 100	53.1	96.7
[3], drug2 concentration 100 nM	97.4	> 100	> 100	96.7	> 100	> 100	89.1
[3], drug2 concentration 500 nM	> 100	96.2	> 100	> 100	70.1	> 100	77.9
[3], drug2 concentration 1000 nM	> 100	> 100	97.2	91.1	95.5	80.8	73.6
[3], drug2 concentration 5000 nM	48.9	54	49.3	53.3	54.9	50.4	46.4
